Measurements taken from the supplement of paper PMC5579334.
± gives the standard deviation of the averaged measurements.

Experiments:
[1] = test system: STS26T; assay: drug sensitivity score (DSS, CellTiter-Glo viability, 72 h) (DSS (dimensionless)); higher = more sensitive; extreme values may be limits of the assay
Method in brief: (§1)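 MPNST cell lines and primary human Schwann cells (750–1000 cells per well) went into 384-well plates preprinted with each compound at five concentrations in 10-fold steps. Plates were incubated 72 h at 37 °C, 5% CO2. Viability was read as CellTiter-Glo ATP luminescence, scaled between vehicle and positive-control wells, with duplicates averaged where present. Percent inhibition is at the top concentration; drug sensitivity score and relative IC50 (censored at top concentration) come from four-parameter logistic fits.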

[2] = test system: HSC1 (primary human Schwann cells); assay: as above
Method in brief: as §1

[3] = test system: S1507-2; assay: as above
Method in brief: as §1

[4] = test system: YST-1; assay: as above
Method in brief: as §1

[5] = test system: HS-PSS; assay: as above
Method in brief: as §1

[6] = test system: HS-Sch-2; assay: as above
Method in brief: as §1

[7] = test system: ST8814; assay: as above
Method in brief: as §1

[8] = test system: S462; assay: as above
Method in brief: as §1

[9] = test system: HSC2 (primary human Schwann cells); assay: as above
Method in brief: as §1

[10] = test system: STS26T; assay: drug sensitivity score (DSS, CellTox-Green cytotoxicity, 72 h) (DSS (dimensionless)); higher = more cytotoxic; extreme values may be limits of the assay
Method in brief: (§2)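 MPNST cell lines and primary human Schwann cells were incubated 72 h at 37 °C in 384-well plates holding five 10-fold compound dilutions. CellTox-Green was added before seeding at a final 1:1000 dilution and reported fluorescence from DNA released by disrupted cells. Signals were scaled to vehicle and positive-control wells, and cultures failing plate quality control were dropped. Drug sensitivity score and relative IC50 come from four-parameter logistic fits, with IC50 censored at the top concentration.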

[11] = test system: HSC1 (primary human Schwann cells); assay: as above
Method in brief: as §2

[12] = test system: S1507-2; assay: as above
Method in brief: as §2

[13] = test system: HS-PSS; assay: as above
Method in brief: as §2

[14] = test system: ST8814; assay: as above
Method in brief: as §2

[15] = test system: HSC2 (primary human Schwann cells); assay: as above
Method in brief: as §2

[16] = test system: STS26T; assay: % inhibition of CellTiter-Glo viability at highest tested concentration (72 h), relative to DMSO and benzethonium chloride controls; higher = more inhibition
Method in brief: as §1

[17] = test system: HSC1 (primary human Schwann cells); assay: as above
Method in brief: as §1

[18] = test system: S1507-2; assay: as above
Method in brief: as §1

[19] = test system: YST-1; assay: as above
Method in brief: as §1

[20] = test system: HS-PSS; assay: as above
Method in brief: as §1

[21] = test system: HS-Sch-2; assay: as above
Method in brief: as §1

[22] = test system: ST8814; assay: as above
Method in brief: as §1

[23] = test system: S462; assay: as above
Method in brief: as §1

[24] = test system: HSC2 (primary human Schwann cells); assay: as above
Method in brief: as §1

Compound	drug sensitivity score [1]	drug sensitivity score [2]	drug sensitivity score [3]	drug sensitivity score [4]	drug sensitivity score [5]	drug sensitivity score [6]	drug sensitivity score [7]	drug sensitivity score [8]	drug sensitivity score [9]	drug sensitivity score [10]	drug sensitivity score [11]	drug sensitivity score [12]	drug sensitivity score [13]	drug sensitivity score [14]	drug sensitivity score [15]	% inhibition [16]	% inhibition [17]	% inhibition [18]	% inhibition [19]	% inhibition [20]	% inhibition [21]	% inhibition [22]	% inhibition [23]	% inhibition [24]
N#Cc1ccc(COC[C@H]2O[C@@H](n3c(NCc4ccc(Cl)c(Cl)c4)nc4c(N)ncnc43)[C@H](O)[C@@H]2O)cc1 (max concentration tested 10000 nM)	3.06	5.32	0	2.63	0.47	0	0	0.314 ± 0.44	8	0.0103	0	0	0	0	0	30.7%	41.6%	7.48 ± 0.46%	28.8%	21.7%	9.8%	8.16%	11.3 ± 7.2%	44.2%
CC[C@@H]1C(=O)N(C)c2cnc(Nc3ccc(C(=O)N[C@H]4CC[C@H](N5CCN(CC6CC6)CC5)CC4)cc3OC)nc2N1C(C)C [Volasertib] (max concentration tested 1000 nM)	23.5	10.6	17.138 ± 0.0087	15	8.74	19.5	14.4	21.2 ± 0.31	14.8	30.8	12.8	13.2 ± 1.2	0	13.9	19.2	78.3%	53%	79.2 ± 8.9%	55.3%	59.5%	59.3%	80.6%	95.95 ± 0.59%	79.3%
COc1cc2c(cc1-c1c(C)noc1C)ncc1[nH]c(=O)n([C@H](C)c3ccccn3)c12 [I-BET151] (max concentration tested 10000 nM)	3.63	7.53	8.57 ± 0.91	7.27	5.14	7.97	7.98	5.52 ± 1.1	7.44	0	0.0349	6.26 ± 2.9	0	3.3	0	39.3%	63.4%	80.9 ± 2.5%	63.4%	58.5%	69.1%	69.7%	54.1 ± 0.65%	67.2%
O=C(CCCCCCC(=O)Nc1ccccc1)NO [Vorinostat] (max concentration tested 10000 nM)	6.18	9.34	9.06 ± 1.5	13	4.89	8.6	8.9	7.84 ± 1.1	8.25	3.21	2.83	7.03 ± 1.4	2.31	5.36	4.21	83.9%	90.6%	103.1 ± 0.86%	100%	79.2%	99.6%	101%	101.1 ± 0.69%	88.6%
COc1ccc(-c2cc3c(C)nc(N)nc3n([C@H]3CC[C@H](OCCO)CC3)c2=O)cn1 (max concentration tested 10000 nM)	20.5	18.3	22.5 ± 0.84	25.6	11.7	14.9	18.8	16.6 ± 2	16.7	4.38	2.35	6.9 ± 1.9	0.29	6.06	2.71	92.3%	92.1%	98.4 ± 1.9%	101%	70.2%	97.5%	99.7%	86.96 ± 0.63%	92%
Nc1cccc2c1C(=O)N(C1CCC(=O)NC1=O)C2=O (configuration not stated) [Pomalidomide] (max concentration tested 10000 nM)	0	0	0	0	0	0	0	0.575 ± 0.81	0	0	0	0.571 ± 0.72	0	0	0	2.08%	8.79%	-0.849 ± 0.56%	-0.59%	-13.4%	-6.26%	8.53%	8.99 ± 10%	-10.6%
Cc1nc(Nc2ncc(C(=O)Nc3c(C)cccc3Cl)s2)cc(N2CCN(CCO)CC2)n1 [Dasatinib] (max concentration tested 1000 nM)	11.7	8.49	12.3 ± 1.8	4.94	0.97	7.09	10.2	4.46 ± 0.87	5.78	3.95	0	1.53 ± 1.1	0	4.56	0	64.8%	60%	82.6 ± 2.6%	20.6%	19.3%	58.5%	65.5%	30.9 ± 1.7%	49.2%
C#Cc1cccc(Nc2ncnc3cc(OC)c(OCCCCCCC(=O)NO)cc23)c1 [CUDC-101] (max concentration tested 10000 nM)	8.5	15.8	11.9 ± 0.6	20.8	12.6	15.7	12.3	13.3 ± 1.8	15	6	11	9.97 ± 2.9	6.98	9.2	11.8	100%	102%	103 ± 1.6%	99.1%	95%	101%	102%	102.2 ± 0.43%	102%
COc1cc([C@@H]2c3cc4c(cc3[C@@H](O[C@@H]3O[C@@H]5CO[C@@H](c6cccs6)O[C@H]5[C@H](O)[C@H]3O)[C@H]3COC(=O)[C@H]23)OCO4)cc(OC)c1O [Teniposide] (max concentration tested 10000 nM)	17.5	22.2	15.6 ± 3.6	22.9	6.82	14	17.7	23.7 ± 0.38	22.8	11	11	8.49 ± 4.7	1.46	14.7	9.8	93.7%	92.8%	92.44 ± 0.6%	88.2%	68.2%	94.8%	87.2%	107.1 ± 0.24%	100%
CN1CCC(COc2cnc(-c3cccc(Cn4nc(-c5cccc(C#N)c5)ccc4=O)c3)nc2)CC1 (max concentration tested 1000 nM)	0.286	0	7.535 ± 0.062	0	0	0	0	2.88 ± 4.1	0	0.0133	0	0.27 ± 0.38	0	0	0	13.9%	6.94%	28.3 ± 1.1%	2.87%	2.35%	0.48%	9.67%	12.1 ± 1.4%	8.76%
FC(F)c1nc2ccccc2n1-c1nc(N2CCOCC2)nc(N2CCOCC2)n1 [ZSTK474] (max concentration tested 10000 nM)	14.6	8.75	13.5 ± 2.1	15.1	3.54	4.18	8.94	8 ± 0.68	9.9	0	0	0.69 ± 0.011	0	0	0.497	80%	75.7%	76.7 ± 9%	81.3%	30.6%	38.2%	69.7%	59.4 ± 5%	77.2%
CC(=O)O[C@H]1C(=O)[C@@]2(C)[C@H]([C@H](OC(=O)c3ccccc3)[C@]3(O)C[C@H](OC(=O)[C@H](O)[C@@H](NC(=O)c4ccccc4)c4ccccc4)C(C)=C1C3(C)C)[C@]1(OC(C)=O)CO[C@@H]1C[C@@H]2O [Paclitaxel] (max concentration tested 1000 nM)	28.1	18	17.3 ± 0.6	23.7	12.2	23.3	18.3	28.8 ± 1.5	19.1	33.8	17.8	15.9 ± 1.1	0	18.6	20.3	99.6%	70.6%	84.6 ± 1%	81.6%	45.7%	93%	94.5%	99.3 ± 1.5%	73.9%
C=CC(=O)N1CCC[C@@H](n2nc(-c3ccc(Oc4ccccc4)cc3)c3c(N)ncnc32)C1 [Ibrutinib] (max concentration tested 1000 nM)	0	0	0	0	1.17	0	0	0	0	0	0	0	0	0	0	2.46%	-4.13%	-8.72 ± 4.8%	-1.93%	7.7%	0.01%	2.81%	-0.0582 ± 2.1%	-1.15%
